Assay results from article PMC10215804, “Exploring Alternative Pathways to Target Bacterial Type II Topoisomerases Using NBTI Antibacterials: Beyond Halogen-Bonding Interactions” (Antibiotics, 2023).
Read-outs that look alike come from different tables or passages of the source.

Key:
[1] = biological target: T1, E. coli topoIV (Escherichia coli, UniProt P0AFI2); assay: topoIV relaxation inhibition assay (high-throughput plate assay); format: biochemical
T1 construct: purchased Inspiralis (Norwich, UK)
Procedure: (§1) To determine the IC50 values of the compounds for S. aureus and E. coli, a DNA gyrase supercoiling high-throughput plate assay and a topoIV relaxation high-throughput plate assay were performed. Assay kits and black streptavidin-coated 96-well microtiter plates are available from Inspiralis (Norwich, UK). For pre-screening, an inhibitor concentration of 100 μM was used. […] A nonlinear regression-based fit of the inhibition curves was used, with the log [inhibitor] versus slope of the reaction variables (four parameters) and a symmetric equation. […] To determine IC50 values, two independent repetitions were performed and the average was calculated.

[2] = test system: K. pneumoniae; assay: MIC, broth microdilution; format: cell-based
Procedure: (§2) For the determination of minimum inhibitory concentrations (MIC), the broth microdilution method was used in 96-well plate format, according to the guidelines of the Clinical and Laboratory Standards Institute and the recommendations of the European Committee on Antimicrobial Susceptibility Testing (EUCAST). The dilutions of the bacterial suspension of the specific bacterial strain, corresponding to the 0.5 McFarland turbidity standard, were prepared with […] Mueller–Hinton broth with TES (Thermo Fisher Scientific) to obtain an end inoculum of 10^5 CFU/mL. The compounds were dissolved in DMSO and mixed with the inoculum. […] The MIC was determined as the lowest concentration of antibiotic that prevented visible bacterial growth. Tetracycline was used as a positive control on each test plate.

[3] = test system: P. aeruginosa RDK 184; assay: MIC, broth microdilution; format: cell-based
Procedure: as §2

[4] = test system: S. aureus (ATCC 29213); assay: MIC, broth microdilution; format: cell-based; details: Staphylococcus aureus
Procedure: as §2

[5] = test system: E. coli ESBL QA-11.3; assay: MIC, broth microdilution; format: cell-based; details: Escherichia coli
Procedure: as §2

[6] = test system: E. coli (ATCC 25922); assay: MIC, broth microdilution; format: cell-based
Procedure: as §2

[7] = test system: A. baumannii; assay: MIC, broth microdilution; format: cell-based
Procedure: as §2

[8] = test system: E. coli D22; assay: MIC, broth microdilution; format: cell-based; details: Escherichia coli
Procedure: as §2

[9] = test system: E. coli N43 (CGSC# 5583); assay: MIC, broth microdilution; format: cell-based; details: Escherichia coli
Procedure: as §2

[10] = test system: E. faecalis RDK 057; assay: MIC, broth microdilution; format: cell-based
Procedure: as §2

[11] = biological target: T2, S. aureus topoIV (Staphylococcus aureus, UniProt P0C1U9); assay: biochemical; details: relaxation inhibition; mean of two independent measurements ± SD
T2 construct: purchased Inspiralis (Norwich, UK)
Procedure: as §1

[12] = biological target: T3, S. aureus DNA gyrase (Staphylococcus aureus, UniProt P20831); assay: biochemical; details: supercoiling inhibition; mean of two independent measurements ± SD
T3 construct: purchased Inspiralis (Norwich, UK)
Procedure: as §1

[13] = biological target: T4, human topoisomerase IIα (Homo sapiens, UniProt P11388); assay: human topoisomerase II alpha relaxation high-throughput assay (selectivity); format: biochemical; details: residual activity at 100 µM compound; mean ± SD, two independent experiments; read-out: Human TopoIIα (% RA at 100 µM)
T4 construct: purchased Inspiralis (Norwich, UK)
Procedure: For selectivity determination, a human topoisomerase II alpha relaxation high-throughput assay was used. The assay kits and black streptavidin-coated 96-well microtiter plates are available from Inspiralis (Norwich, UK). Two independent measurements were performed with an inhibitory concentration of 100 µM. Raw data were calculated as the mean ± SD percentage of the residual enzyme activity.

[14] = Metabolic activity assessment (cytotoxicity), CellTiter 96 Aqueous One; format: cell-based; details: human, 72 h treatment, means of three independent measurements ± SD
Procedure: HUVEC (ATCC® CRL-1730™) and HepG2 (ATCC® HB-8065™) cell lines were cultured in Dulbecco’s Modified Eagle Medium (DMEM; Sigma-Aldrich, St. Louis, MO, USA) supplemented with 10% heat-deactivated FBS (Gibco, Grand Island, NE, USA), 2 mM L-glutamine, 100 U/mL penicillin, 100 μg/mL streptomycin (all from Sigma-Aldrich, St. Louis, MO, USA) in a humidified chamber at 37 °C and 5% CO2. The experiments were carried out on passages 4–7 for both cell lines. The tested compounds were dissolved in DMSO and further diluted in culture medium to a desired final concentration. The cells were then seeded into 96-well plates at 5 × 10^4 cells/mL (100 μL/well) or 8 × 10^4 cells/mL (100 μL/well) for HUVEC and HepG2, respectively. The cells were then incubated for 24 h to allow attachment onto the wells. The cells were treated with 1 μM and 50 μM of each compound of interest, or the corresponding vehicle as control. […] Their metabolic activity was assessed after 72 h treatment using a CellTiter 96 Aqueous One Solution Cell Proliferation Assay (Promega, Madison, WI, USA), in accordance with the manufacturer’s instructions. The absorbance was measured at 492 nm on an automated microplate reader, Tecan Spark (Tecan Group Ltd., Männedorf, CH, Switzerland). Data are presented as the percentage of metabolic activity of control cells stimulated with vehicle, or as an IC50 value (mean ± SD) from three independent experiments, each conducted in triplicate (for screening) or duplicate (for IC50 determination). IC50 values were calculated using a non-linear regression model and with Graph Pad Prism 9 software.

[15] = biological target: T5, E. coli DNA gyrase (Escherichia coli, UniProt P0AES4); assay: DNA gyrase supercoiling inhibition assay (high-throughput plate assay); format: biochemical
T5 construct: purchased Inspiralis (Norwich, UK)
Procedure: as §1

[16] = test system: VRE; assay: MIC, broth microdilution; format: cell-based; details: Enterococcus
Procedure: as §2

[17] = test system: MRSA (QA-11.2); assay: MIC, broth microdilution; format: cell-based, S. aureus; details: Staphylococcus aureus
Procedure: as §2

[18] = test system: MRSA (QA-11.7); assay: MIC, broth microdilution; format: cell-based, S. aureus; details: Staphylococcus aureus
Procedure: as §2

[19] = test system: MRSA(QA-12.1); assay: MIC, broth microdilution; format: cell-based, S. aureus; details: Staphylococcus aureus
Procedure: as §2

[20] = read-out: MIC E. coli N43 (CGSC# 5583)

T4 sequence (P11388 whole entry): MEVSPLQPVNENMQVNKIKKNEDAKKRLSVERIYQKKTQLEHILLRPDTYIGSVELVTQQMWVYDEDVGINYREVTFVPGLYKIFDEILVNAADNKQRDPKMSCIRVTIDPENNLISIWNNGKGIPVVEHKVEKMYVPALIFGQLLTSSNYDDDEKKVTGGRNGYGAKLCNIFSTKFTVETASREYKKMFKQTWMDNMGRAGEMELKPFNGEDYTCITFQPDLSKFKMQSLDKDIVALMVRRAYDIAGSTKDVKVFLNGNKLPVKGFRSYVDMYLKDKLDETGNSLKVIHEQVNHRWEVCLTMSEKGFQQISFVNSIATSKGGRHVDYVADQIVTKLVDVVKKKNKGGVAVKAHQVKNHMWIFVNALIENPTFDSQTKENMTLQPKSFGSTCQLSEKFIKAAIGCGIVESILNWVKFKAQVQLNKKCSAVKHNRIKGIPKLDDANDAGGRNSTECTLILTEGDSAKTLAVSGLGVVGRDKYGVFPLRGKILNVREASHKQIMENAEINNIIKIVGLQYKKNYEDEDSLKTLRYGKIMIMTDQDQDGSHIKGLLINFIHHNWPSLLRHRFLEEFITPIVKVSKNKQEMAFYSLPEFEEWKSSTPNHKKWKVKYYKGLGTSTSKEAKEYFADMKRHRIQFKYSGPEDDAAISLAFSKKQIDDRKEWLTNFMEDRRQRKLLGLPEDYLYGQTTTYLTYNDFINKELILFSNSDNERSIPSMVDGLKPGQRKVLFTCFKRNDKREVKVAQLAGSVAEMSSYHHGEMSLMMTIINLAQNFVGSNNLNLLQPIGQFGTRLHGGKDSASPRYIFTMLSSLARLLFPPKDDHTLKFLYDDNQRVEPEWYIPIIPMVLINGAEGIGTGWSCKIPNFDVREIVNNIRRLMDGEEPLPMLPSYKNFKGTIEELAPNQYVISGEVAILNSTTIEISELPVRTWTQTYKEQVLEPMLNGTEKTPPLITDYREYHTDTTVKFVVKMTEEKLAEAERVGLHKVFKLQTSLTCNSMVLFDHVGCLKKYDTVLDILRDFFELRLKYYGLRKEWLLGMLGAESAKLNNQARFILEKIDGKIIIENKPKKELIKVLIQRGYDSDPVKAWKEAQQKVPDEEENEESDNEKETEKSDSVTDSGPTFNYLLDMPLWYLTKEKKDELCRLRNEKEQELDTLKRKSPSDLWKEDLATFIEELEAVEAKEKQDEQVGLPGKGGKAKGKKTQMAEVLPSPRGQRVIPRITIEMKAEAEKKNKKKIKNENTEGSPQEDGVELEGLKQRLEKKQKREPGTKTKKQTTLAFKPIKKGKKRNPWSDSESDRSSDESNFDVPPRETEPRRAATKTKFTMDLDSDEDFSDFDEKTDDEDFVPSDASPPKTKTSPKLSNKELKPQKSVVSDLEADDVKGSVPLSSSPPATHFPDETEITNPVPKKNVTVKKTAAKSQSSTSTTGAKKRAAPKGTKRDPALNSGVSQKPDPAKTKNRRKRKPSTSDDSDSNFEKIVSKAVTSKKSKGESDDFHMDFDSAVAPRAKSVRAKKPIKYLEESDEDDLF
T3 sequence (P20831 whole entry): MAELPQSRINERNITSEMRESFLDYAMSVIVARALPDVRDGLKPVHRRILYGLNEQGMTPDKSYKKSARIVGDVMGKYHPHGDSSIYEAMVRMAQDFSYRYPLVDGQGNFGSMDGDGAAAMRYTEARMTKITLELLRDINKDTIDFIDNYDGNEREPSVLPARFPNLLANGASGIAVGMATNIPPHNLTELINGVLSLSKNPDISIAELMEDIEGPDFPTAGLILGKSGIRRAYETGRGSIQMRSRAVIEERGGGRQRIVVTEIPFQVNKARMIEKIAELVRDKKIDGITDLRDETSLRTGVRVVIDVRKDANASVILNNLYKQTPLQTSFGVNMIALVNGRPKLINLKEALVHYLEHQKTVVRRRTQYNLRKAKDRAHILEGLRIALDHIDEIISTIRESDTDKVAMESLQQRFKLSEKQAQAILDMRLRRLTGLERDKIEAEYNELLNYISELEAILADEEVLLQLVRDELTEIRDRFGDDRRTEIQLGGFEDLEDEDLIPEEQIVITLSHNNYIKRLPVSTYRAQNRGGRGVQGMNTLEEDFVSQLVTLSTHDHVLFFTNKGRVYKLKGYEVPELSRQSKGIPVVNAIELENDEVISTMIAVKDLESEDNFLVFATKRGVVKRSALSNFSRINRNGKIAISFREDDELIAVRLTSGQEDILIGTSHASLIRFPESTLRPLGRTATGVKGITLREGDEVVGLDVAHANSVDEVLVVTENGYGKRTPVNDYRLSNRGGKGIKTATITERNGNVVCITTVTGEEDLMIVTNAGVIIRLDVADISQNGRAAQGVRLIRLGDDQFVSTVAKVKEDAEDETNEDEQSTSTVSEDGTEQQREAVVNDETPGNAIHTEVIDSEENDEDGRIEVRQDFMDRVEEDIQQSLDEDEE
T3 sequence (P0A0K8 whole entry partner): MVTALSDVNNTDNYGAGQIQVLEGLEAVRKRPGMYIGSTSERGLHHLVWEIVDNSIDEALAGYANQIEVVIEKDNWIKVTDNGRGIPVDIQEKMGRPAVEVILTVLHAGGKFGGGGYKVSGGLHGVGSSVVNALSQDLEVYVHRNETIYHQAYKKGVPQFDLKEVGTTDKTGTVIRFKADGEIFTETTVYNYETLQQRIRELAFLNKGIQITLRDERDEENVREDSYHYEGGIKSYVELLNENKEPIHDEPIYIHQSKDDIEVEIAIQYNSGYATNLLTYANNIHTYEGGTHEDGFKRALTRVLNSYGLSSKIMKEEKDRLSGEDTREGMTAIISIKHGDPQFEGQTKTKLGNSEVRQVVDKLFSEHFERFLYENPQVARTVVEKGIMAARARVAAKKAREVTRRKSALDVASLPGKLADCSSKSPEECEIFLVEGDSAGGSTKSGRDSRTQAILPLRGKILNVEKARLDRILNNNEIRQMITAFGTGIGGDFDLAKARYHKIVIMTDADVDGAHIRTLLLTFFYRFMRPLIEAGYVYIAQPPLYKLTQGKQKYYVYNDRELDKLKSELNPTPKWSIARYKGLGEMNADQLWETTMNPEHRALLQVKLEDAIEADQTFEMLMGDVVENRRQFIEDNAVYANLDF
T2 sequence (P0C1U9 whole entry): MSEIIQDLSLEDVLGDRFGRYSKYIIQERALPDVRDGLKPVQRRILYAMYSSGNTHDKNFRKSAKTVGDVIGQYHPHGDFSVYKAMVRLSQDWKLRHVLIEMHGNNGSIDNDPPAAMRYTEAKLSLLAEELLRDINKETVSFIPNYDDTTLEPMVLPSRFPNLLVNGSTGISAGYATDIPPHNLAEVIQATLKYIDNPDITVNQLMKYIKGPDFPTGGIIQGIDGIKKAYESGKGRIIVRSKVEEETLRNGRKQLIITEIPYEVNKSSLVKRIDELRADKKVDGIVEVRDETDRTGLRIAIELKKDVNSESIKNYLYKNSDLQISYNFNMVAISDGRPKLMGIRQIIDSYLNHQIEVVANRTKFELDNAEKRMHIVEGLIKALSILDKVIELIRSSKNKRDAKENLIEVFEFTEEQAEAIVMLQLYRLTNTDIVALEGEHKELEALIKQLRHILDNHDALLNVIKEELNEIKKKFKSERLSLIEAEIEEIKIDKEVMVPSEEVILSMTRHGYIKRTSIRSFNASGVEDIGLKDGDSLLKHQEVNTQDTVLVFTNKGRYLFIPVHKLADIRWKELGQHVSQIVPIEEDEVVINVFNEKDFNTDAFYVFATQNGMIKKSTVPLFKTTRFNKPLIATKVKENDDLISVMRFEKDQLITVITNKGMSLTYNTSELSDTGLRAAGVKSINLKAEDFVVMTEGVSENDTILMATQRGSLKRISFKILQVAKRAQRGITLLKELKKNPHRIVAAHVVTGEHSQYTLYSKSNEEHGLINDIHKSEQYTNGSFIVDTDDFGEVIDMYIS
T2 sequence (P0C1S7 whole entry partner): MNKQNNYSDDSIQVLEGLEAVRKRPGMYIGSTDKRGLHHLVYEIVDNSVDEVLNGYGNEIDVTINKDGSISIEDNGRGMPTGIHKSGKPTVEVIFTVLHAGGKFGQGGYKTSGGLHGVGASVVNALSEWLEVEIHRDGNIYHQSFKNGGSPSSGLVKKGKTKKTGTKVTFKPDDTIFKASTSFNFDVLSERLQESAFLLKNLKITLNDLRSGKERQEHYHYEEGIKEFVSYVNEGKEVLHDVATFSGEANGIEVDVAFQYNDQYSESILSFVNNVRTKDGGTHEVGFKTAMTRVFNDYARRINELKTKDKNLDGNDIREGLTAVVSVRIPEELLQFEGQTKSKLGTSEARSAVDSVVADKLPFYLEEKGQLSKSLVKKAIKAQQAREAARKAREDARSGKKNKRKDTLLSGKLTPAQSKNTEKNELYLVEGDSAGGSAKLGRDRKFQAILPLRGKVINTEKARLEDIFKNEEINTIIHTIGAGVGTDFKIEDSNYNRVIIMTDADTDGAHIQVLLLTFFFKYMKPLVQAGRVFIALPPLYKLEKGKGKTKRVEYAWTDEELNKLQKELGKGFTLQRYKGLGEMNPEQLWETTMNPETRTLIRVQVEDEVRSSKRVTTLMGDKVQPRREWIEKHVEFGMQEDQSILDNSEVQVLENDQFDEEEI

In the case of `COc1ccc2nccc(OCC3CCC(NCc4ccc(N)cc4)CO3)c2n1` (centres unmarked) [Compound 11, N-(4-Aminobenzyl)-6-(((6-methoxy-1,5-naphthyridin-4-yl)oxy)methyl)tetrahydro-2H-pyran-3-amine], the IC50 [1] is reported as over 100 µM, the MIC ([2]; Klebsiella pneumoniae, 20 h, read-out: MIC (μM) K. pneumoniae) is reported as over 328 µM and the MIC ([2]; Klebsiella pneumoniae, read-out: MIC K. pneumoniae) is reported as over 128 µg/mL. It also gave an MIC ([3]; Pseudomonas aeruginosa, RDK184, 20 h, read-out: MIC (μM) P. aeruginosa RDK 184) of over 328 µM, an MIC ([3]; Pseudomonas aeruginosa, RDK184, read-out: MIC P. aeruginosa RDK 184) of over 128 µg/mL and an MIC ([4]; ATCC29213, 20 h, read-out: MIC (μM) S. aureus (ATCC 29213)) of over 328 µM. For the same compound, the MIC ([4]; ATCC29213, read-out: MIC S. aureus (ATCC 29213)) was over 128 µg/mL, the MIC ([5]; ESBLQA11.3, 20 h, read-out: MIC (μM) E. coli ESBL QA:11.3) was over 328 µM and the MIC ([5]; ESBLQA11.3, read-out: MIC E. coli ESBL QA-11.3) was over 128 µg/mL. The MIC ([6]; Escherichia coli, ATCC25922, 20 h, read-out: MIC (μM) E. coli (ATCC 25922)) was over 328 µM, the MIC ([6]; Escherichia coli, ATCC25922, read-out: MIC E. coli (ATCC 25922)) was over 128 µg/mL and the MIC ([7]; Acinetobacter baumannii, 20 h, read-out: MIC (μM) A. baumannii) was over 328 µM. It also gave an MIC ([7]; Acinetobacter baumannii, read-out: MIC A. baumannii) of over 128 µg/mL, an MIC ([8]; D22, 20 h, read-out: MIC (μM) E. coli D22) of over 328 µM and an MIC ([8]; D22, read-out: MIC E. coli D22) of over 128 µg/mL. For the same compound, the MIC ([9]; 20 h, read-out: MIC (μM) E. coli N43) was over 328 µM, the MIC [9, 20] was over 128 µg/mL and the MIC ([10]; Enterococcus faecalis, RDK057, read-out: MIC (μM) E. faecalis DRK 057) was over 328 µM. For the same compound, the MIC ([10]; Enterococcus faecalis, RDK057, read-out: MIC E. faecalis RDK 057) was over 128 µg/mL, the IC50 [11] was over 100 µM and the IC50 [12] was over 100 µM. For the same compound, the remaining activity at 100 µM [13] was 100%, the IC50 at 72 h ([14]; HUVEC cells (ATCC CRL-1730)) was over 50 µM and the IC50 at 72 h ([14]; HepG2 cells (ATCC HB-8065)) was over 50 µM. For the same compound, the IC50 [15] was over 100 µM.
For `O=c1ccc2ncc(=O)n3c2n1C[C@H]3CN1CCC(NCc2cc3c(cn2)OCCC3)CC1` [Gepo, gepotidacin, reference compound], the MIC ([2]; Klebsiella pneumoniae; Table S3; read-out: MIC (μM) K. pneumoniae) was 20.5 µM, the MIC ([2]; Klebsiella pneumoniae; read-out: MIC K. pneumoniae) was 8 µg/mL and the MIC ([3]; Pseudomonas aeruginosa, RDK184; Table S3; read-out: MIC (μM) P. aeruginosa RDK 184) was 20.5 µM. It also gave an MIC ([3]; Pseudomonas aeruginosa, RDK184; read-out: MIC P. aeruginosa RDK 184) of 8 µg/mL, an MIC ([4]; ATCC29213, Table S3, read-out: MIC (μM) S. aureus (ATCC 29213)) of 0.32 µM and an MIC ([6]; Escherichia coli, ATCC25922; Table S3; read-out: MIC (μM) E. coli (ATCC 25922)) of 2.56 µM. It also gave an MIC ([6]; Escherichia coli, ATCC25922; read-out: MIC E. coli (ATCC 25922)) of 1 µg/mL, an MIC ([7]; Acinetobacter baumannii; Table S3; read-out: MIC (μM) A. baumannii) of 20.5 µM and an MIC ([7]; Acinetobacter baumannii; read-out: MIC A. baumannii) of 8 µg/mL. It also gave an MIC ([8]; D22, Table S3, lpxC mutation, read-out: MIC (μM) E. coli D22) of 0.32 µM, an MIC ([9]; read-out: MIC (μM) E. coli N43) of 0.041 µM and an MIC [9, 20] of 0.016 µg/mL. The MIC ([10]; Enterococcus faecalis, RDK057; Table S3; read-out: MIC (μM) E. faecalis DRK 057) was 5.12 µM, the MIC ([10]; Enterococcus faecalis, RDK057; read-out: MIC E. faecalis RDK 057) was 2 µg/mL and the MIC ([16]; Table S3, read-out: MIC (μM) VRE) was 2.56 µM. It also gave an MIC ([16]; read-out: MIC VRE) of 1 µg/mL, an MIC ([17]; Table S3, read-out: MIC (μM) MRSA (QA-11.2)) of 1.28 µM and an MIC ([17]; read-out: MIC MRSA (QA-11.2)) of 0.5 µg/mL. The MIC ([18]; Table S3, read-out: MIC (μM) MRSA (QA-11.7)) was 0.161 µM, the MIC ([18]; strain resistant to cefoxitin, ciprofloxacin, clindamycin, erythromycin, tetracycline, thiamulin, trimethoprim, read-out: MIC MRSA (QA-11.7)) was 0.063 µg/mL and the MIC ([19]; Table S3, read-out: MIC (μM) MRSA(QA-12.1)) was 0.32 µM. The MIC ([19]; strain resistant to cefoxitin, gentamicin, kanamycin, rifampicin, streptomycin, sulfamethoxazole, tetracycline, read-out: MIC MRSA(QA-12.1)) was 0.125 µg/mL.
